According to patent US20080146602A1, “Thienopyridine Derivatives, Production Method and Use Thereof” (TAKEDA PHARMACEUTICAL COMPANY LIMITED, priority 2004, published 2008):
Marks after values point to notes of the source that are not given here.

Tests used:
[1] = test system: Adjuvant Arthritis in Rat; experiment: Effect on adjuvant arthritis in rat (footpad swelling suppression); type: in vivo; conditions: male Lewis rat, Freund's complete adjuvant; 0.3 mg/kg orally once a day for 14 days; edema volume of left hind paw, Day 14; n=6
Experimental: Effect on Adjuvant Arthritis in Rat
A male Lewis rat (7-week-old, Crea Japan Ltd.) was sensitized by an intracutaneous injection of 0.05 ml of Freund's complete adjuvant: 0.5% liquid paraffin suspension of dead tubercle bacillus) into the footpad of the right hind paw, and the test compound suspended in 0.5% methyl cellulose was orally administered once a day for 14 days. Immediately before sensitization (Day 0) and 14th day (Day 14), the edema volume of the left hind paw was measured by a plethysmometer (manufactured by Ugo Basile, Italy) and the footpad swelling suppression rate (%) relative to unsensitized rat was determined by the following formula.
The results are shown in mean ±S.E. of each group (n=6) and compared and detected by the Dunnett's method. In addition, less than 5% of the critical rate was taken as significant.

NC(=O)[C@H]1CCc2c(sc3nc(CN4C(=O)CCC4=O)c(Cl)c(-c4ccc(O)cc4)c23)C1 [Example 8, (7S)-3-Chloro-2-[(2,5-dioxo-1-pyrrolidinyl)methyl]-5,6,7,8-tetrahydro-4-(4-hydroxyphenyl)[1]benzothieno[2,3-b]pyridine-7-carboxamide]
melting point: 299 to 300 °C

COc1ccc(-c2c(Cl)c(CN3C(=O)CSC3=O)nc3sc4c(c23)CC[C@@H](C(N)=O)C4)cc1 (stereo in doubt) [Example 6-2, 3-chloro-2-[(2,4-dioxo-1,3-thiazolidin-3-yl)methyl]-5,6,7,8-tetrahydro-4-(4-methoxyphenyl)[1]benzothieno[2,3-b]pyridine-7-carboxamide]
Swelling suppression rate (%) [1]: 87* %

COc1ccc(-c2c(Cl)c(CN3C(=O)COC3=O)nc3sc4c(c23)CC[C@H](C(N)=O)C4)cc1 [Example 4-2, (7S)-3-chloro-2-[(2,4-dioxo-1,3-oxazolidin-3-yl)methyl]-5,6,7,8-tetrahydro-4-(4-methoxyphenyl)[1]benzothieno[2,3-b]pyridine-7-carboxamide]
Swelling suppression rate (%) [1]: 82* %

NC(=O)[C@H]1CCc2c(sc3nc(CN4C(=O)CSC4=O)c(Cl)c(-c4ccc(O)cc4)c23)C1 [Example 9, (7S)-3-Chloro-2-[(2,4-dioxo-1,3-thiazolidin-3-yl)methyl]-5,6,7,8-tetrahydro-4-(4-hydroxyphenyl)[1]benzothieno[2,3-b]pyridine-7-carboxamide]
melting point: 282 to 283 °C

COc1ccc(-c2c(Cl)c(CN3C(=O)CCC3=O)nc3sc4c(c23)CC[C@@H](C(N)=O)C4)cc1 (stereo in doubt) [Example 5-2, 3-chloro-2-[(2,5-dioxo-1-pyrrolidinyl)methyl]-5,6,7,8-tetrahydro-4-(4-methoxyphenyl)[1]benzothieno[2,3-b]pyridine-7-carboxamide]
Swelling suppression rate (%) [1]: 88* %
